According to ChEMBL document CHEMBL5120873, “Discovery of novel benzimidazole derivatives as potent p300 bromodomain inhibitors with anti-proliferative activity in multiple cancer cells” (Bioorg Med Chem, 2022):
Calls of active or inactive are those of the source. The calls are words filed in the database; no cut-off is given here.

Columns and labels:
[1] = target: T1, Histone acetyltransferase p300 (Homo sapiens, UniProt Q09472); assay: Binding affinity to recombinant EP300 bromodomain (unknown origin) assessed as change in melting temperature by differential scanning fluorimetry method
[2] = system: MCF7; assay: Antiproliferative activity against human MCF7 cells incubated for 5 days by CCK-8 method; format: functional, cell-based; conditions: MCF7, 120 h
[3] = target: T1, Histone acetyltransferase p300; assay: Inhibition of EP300 bromodomain (unknown origin) incubated for 20 mins by AlphaLISA method
[4] = system: OPM-2; assay: Antiproliferative activity against human OPM-2 cells incubated for 5 days by CCK-8 method; format: functional, cell-based; conditions: OPM-2, 120 h
[5] = target: T2, CREB-binding protein/Histone acetyltransferase p300 (Homo sapiens) (UniProt Q09472+Q92793); assay: Inhibition of EP300/CBP bromodomain in human OPM-2 cells assessed as suppression of c-myc expression incubated for 3 days by Western blot analysis; format: cell-based; conditions: dose 0.8-5 µM, time 3.0 day, DDE = dose-dependent effect
[6] = system: SCC-9; assay: Antiproliferative activity against human SCC-9 cells incubated for 5 days by CCK-8 method; format: functional, cell-based; conditions: SCC-9, 120 h
[7] = system: CWR22R; assay: Antiproliferative activity against human 22Rv1 cells incubated for 5 days by CCK-8 method; format: functional, cell-based; conditions: 22Rv1, 120 h
[8] = target: T2, CREB-binding protein/Histone acetyltransferase p300 (Homo sapiens); assay: Inhibition of EP300/CBP bromodomain in human OPM-2 cells assessed as suppression of c-myc expression at <= 1 uM incubated for 3 days by Western blot analysis; format: cell-based; conditions: time 3.0 day
[9] = target: T2, CREB-binding protein/Histone acetyltransferase p300 (Homo sapiens); assay: Inhibition of EP300/CBP bromodomain in human SCC-9 cells assessed as suppression of c-myc expression at 0.8 to 5 uM incubated for 3 days by Western blot analysis; format: cell-based; conditions: dose 0.8-5 µM, time 3.0 day
[10] = system: OPM-2; assay: Induction of apoptosis in human OPM-2 cells assessed as apoptotic cells at 3 uM incubated for 72 hrs by annexin V-FITC/PI staining based flow cytometry analysis; format: functional
[11] = target: T2, CREB-binding protein/Histone acetyltransferase p300 (Homo sapiens); assay: Inhibition of EP300/CBP bromodomain in human 22Rv1 cells assessed as suppression of c-myc expression at 0.8 to 5 uM incubated for 3 days by Western blot analysis; format: cell-based; conditions: dose 0.8-5 µM, time 3.0 day
[12] = system: OPM-2; assay: Induction of cell cycle arrest in human OPM-2 cells assessed as accumulation of cells at G1/G0 phase at 5 uM incubated for 48 hrs by PI staining based flow cytometry analysis (reference value: 34.25 %); format: functional

T1 sequence (Q09472 whole entry): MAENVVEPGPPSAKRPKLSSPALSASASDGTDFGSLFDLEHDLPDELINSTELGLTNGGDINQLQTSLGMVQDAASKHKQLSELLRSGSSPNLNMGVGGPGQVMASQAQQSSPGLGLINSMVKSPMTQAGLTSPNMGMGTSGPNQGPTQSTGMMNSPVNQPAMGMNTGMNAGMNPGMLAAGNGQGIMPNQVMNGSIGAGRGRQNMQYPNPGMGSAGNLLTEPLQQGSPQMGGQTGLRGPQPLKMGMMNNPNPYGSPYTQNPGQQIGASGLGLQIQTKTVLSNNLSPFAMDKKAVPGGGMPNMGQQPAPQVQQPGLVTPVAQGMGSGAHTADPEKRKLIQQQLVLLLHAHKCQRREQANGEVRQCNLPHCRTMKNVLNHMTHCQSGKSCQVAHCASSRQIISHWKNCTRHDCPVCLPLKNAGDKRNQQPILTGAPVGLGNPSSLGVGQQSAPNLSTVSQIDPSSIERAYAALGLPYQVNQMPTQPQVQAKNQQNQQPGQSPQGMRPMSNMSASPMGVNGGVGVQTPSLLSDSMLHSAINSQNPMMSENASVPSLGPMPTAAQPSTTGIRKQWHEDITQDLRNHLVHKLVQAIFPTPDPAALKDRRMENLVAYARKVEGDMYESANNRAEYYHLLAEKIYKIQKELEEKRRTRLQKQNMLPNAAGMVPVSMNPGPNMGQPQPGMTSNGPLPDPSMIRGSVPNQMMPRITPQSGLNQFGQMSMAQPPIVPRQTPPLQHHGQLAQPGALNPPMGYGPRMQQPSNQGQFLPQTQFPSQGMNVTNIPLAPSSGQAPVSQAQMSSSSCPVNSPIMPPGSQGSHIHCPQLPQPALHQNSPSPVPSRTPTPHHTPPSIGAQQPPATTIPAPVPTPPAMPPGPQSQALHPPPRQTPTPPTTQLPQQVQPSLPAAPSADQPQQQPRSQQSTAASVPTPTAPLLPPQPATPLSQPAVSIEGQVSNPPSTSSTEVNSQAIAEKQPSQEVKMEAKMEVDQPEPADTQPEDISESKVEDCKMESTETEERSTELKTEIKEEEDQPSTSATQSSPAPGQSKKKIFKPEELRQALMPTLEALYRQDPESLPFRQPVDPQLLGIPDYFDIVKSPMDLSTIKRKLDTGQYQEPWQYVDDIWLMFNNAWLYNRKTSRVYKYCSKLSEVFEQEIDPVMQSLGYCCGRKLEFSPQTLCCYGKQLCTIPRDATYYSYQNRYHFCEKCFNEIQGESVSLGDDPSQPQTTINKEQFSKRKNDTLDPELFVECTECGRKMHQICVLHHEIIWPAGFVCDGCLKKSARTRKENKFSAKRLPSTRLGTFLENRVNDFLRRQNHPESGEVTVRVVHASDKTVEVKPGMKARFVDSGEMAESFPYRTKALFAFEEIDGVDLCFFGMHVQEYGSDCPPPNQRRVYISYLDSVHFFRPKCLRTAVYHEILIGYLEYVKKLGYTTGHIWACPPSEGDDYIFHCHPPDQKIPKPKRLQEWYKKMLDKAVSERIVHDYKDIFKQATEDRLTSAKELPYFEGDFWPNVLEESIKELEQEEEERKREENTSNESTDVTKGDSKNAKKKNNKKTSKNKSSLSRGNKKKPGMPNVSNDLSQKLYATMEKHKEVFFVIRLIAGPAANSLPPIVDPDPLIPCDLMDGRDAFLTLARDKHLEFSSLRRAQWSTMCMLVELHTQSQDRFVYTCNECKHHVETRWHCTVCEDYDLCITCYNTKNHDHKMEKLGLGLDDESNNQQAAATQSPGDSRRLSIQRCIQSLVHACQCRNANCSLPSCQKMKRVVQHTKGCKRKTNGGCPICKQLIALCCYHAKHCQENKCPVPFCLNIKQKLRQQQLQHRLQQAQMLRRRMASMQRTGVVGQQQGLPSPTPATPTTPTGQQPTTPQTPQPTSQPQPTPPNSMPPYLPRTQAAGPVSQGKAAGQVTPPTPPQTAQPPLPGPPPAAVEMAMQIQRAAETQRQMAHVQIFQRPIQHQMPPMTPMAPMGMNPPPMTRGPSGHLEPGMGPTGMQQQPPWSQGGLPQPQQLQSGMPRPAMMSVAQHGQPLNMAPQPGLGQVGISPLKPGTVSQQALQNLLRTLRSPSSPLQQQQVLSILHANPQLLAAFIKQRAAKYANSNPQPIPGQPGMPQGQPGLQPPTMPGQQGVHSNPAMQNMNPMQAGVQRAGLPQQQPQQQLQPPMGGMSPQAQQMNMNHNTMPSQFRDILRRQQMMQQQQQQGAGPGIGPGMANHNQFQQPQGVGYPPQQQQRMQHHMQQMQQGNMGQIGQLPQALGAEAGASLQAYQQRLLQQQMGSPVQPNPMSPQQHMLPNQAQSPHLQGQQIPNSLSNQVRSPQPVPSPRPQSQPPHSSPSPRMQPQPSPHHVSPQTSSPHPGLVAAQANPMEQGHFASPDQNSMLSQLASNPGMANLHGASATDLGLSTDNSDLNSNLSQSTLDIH
T2 sequence (Q09472 whole entry, looked up): as the sequence (Q09472 whole entry) above
T2 sequence (Q92793 whole entry, looked up): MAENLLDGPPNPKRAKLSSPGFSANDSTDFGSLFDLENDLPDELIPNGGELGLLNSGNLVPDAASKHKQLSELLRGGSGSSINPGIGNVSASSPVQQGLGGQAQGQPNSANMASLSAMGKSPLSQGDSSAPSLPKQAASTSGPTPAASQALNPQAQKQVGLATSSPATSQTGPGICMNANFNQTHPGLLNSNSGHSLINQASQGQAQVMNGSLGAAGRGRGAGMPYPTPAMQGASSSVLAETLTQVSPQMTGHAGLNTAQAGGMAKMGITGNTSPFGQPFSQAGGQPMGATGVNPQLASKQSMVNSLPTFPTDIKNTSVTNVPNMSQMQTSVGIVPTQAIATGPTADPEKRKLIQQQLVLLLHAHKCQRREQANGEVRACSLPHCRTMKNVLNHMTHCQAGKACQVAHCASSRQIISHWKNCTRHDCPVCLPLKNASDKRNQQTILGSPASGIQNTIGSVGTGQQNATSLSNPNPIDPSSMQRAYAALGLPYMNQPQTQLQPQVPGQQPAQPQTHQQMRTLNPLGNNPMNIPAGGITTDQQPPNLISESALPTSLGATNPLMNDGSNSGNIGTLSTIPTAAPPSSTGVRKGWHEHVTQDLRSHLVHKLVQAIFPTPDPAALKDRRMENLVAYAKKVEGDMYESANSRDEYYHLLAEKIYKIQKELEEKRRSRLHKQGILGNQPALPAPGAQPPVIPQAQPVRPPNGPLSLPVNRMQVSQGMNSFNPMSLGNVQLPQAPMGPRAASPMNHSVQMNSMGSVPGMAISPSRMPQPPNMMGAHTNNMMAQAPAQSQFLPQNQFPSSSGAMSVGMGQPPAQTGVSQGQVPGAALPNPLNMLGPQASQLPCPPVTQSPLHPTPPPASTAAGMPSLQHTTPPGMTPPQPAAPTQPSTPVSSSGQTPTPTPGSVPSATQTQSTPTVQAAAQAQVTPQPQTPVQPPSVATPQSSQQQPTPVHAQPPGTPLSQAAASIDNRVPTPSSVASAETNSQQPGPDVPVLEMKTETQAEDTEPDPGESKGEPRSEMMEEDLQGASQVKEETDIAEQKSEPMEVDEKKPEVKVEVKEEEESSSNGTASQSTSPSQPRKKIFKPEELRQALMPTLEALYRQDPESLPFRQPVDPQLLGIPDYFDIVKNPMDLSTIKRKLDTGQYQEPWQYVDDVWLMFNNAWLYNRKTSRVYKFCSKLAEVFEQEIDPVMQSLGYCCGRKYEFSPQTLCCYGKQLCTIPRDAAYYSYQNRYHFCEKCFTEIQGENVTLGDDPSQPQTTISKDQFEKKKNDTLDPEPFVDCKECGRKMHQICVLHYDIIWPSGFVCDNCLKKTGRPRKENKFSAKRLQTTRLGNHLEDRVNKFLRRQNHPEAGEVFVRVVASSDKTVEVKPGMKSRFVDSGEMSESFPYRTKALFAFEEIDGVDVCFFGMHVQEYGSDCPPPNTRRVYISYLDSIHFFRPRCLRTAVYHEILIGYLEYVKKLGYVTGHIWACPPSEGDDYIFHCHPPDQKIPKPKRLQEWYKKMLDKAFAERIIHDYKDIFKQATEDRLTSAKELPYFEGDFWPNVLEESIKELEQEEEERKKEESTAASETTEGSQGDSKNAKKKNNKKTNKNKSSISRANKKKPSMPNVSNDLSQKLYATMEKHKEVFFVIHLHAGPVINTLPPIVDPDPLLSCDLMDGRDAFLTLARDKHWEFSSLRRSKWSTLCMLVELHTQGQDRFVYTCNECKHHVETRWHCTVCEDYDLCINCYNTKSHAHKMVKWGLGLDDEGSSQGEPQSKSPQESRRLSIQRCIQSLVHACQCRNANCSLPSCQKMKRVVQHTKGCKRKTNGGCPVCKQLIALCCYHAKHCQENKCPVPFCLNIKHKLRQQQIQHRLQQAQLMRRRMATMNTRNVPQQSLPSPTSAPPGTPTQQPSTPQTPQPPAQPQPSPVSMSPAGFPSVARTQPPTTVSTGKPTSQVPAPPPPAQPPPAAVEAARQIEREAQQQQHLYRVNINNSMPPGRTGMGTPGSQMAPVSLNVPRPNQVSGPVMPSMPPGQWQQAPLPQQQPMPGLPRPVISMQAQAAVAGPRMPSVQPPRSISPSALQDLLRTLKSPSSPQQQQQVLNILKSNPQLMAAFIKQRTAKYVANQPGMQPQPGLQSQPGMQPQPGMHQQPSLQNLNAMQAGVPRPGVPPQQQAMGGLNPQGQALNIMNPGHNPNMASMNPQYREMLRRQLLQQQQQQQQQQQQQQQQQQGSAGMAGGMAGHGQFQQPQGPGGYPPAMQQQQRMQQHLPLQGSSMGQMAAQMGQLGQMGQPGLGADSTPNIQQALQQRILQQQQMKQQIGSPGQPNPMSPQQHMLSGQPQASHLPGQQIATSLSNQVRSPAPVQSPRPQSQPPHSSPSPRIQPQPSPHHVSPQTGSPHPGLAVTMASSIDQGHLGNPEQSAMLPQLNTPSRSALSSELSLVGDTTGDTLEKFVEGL

SMILES: CNC(=O)c1ccc2c(c1)nc(CCc1ccc(OC)c(Cl)c1)n2C[C@H](C)N1CCOCC1
- ΔTm [1]: 2.1 °C

SMILES: COc1ccc(N2C(=O)C[C@@H]2c2nc3cc(-c4c(C)noc4C)ccc3n2[C@H]2CC[C@H](OC)CC2)cc1Cl
- IC50 [2]: 1990 nM
- IC50 [3]: 81 nM
- IC50 [4]: 1540 nM
- Activity [5]: Dde
- IC50 [6]: 3170 nM
- IC50 [7]: 3680 nM

SMILES: COc1ccc(CCc2nc3cc(C(C)=O)ccc3n2C[C@H](C)N2CCOCC2)cc1Cl
- ΔTm [1]: 4.1 °C

SMILES: COc1ccc2c(Cc3nc4cc(-c5c(C)noc5C)ccc4n3[C@H]3CC[C@H](O)CC3)cc(=O)oc2c1
- IC50 [3]: 48 nM

SMILES: COc1ccc(CCc2nc3cc(-c4c(C)noc4C)ccc3n2C[C@H](C)N2CCOCC2)cc1Cl
- ΔTm [1]: 4.5 °C
- IC50 [2]: 2390 nM
- IC50 [4]: 2640 nM
- IC50 [6]: 6420 nM
- IC50 [7]: > 10000 nM

SMILES: COc1ccc(CCc2nc3cc(NS(C)(=O)=O)ccc3n2C[C@H](C)N2CCOCC2)cc1Cl
- ΔTm [1]: 2.51 °C

SMILES: COc1ccc(CCc2nc3cc(-c4cnn(C)n4)ccc3n2C[C@H](C)N2CCOCC2)cc1Cl
- ΔTm [1]: 4.34 °C

SMILES: COc1ccc(N2C(=O)C[C@H]2c2nc3cc(-c4c(C)noc4C)ccc3n2[C@H]2CC[C@H](OC)CC2)cc1Cl
- Activity [8]: Active
- Activity [9]: Active
- IC50 [2]: 960 nM
- IC50 [3]: 49 nM
- IC50 [4]: 1090 nM
- Activity [10]: 38.27%
- IC50 [6]: 1850 nM
- IC50 [7]: 3740 nM
- Activity [11]: Active
- Activity [12]: 90%

SMILES: COc1ccc(CCc2nc3cc(-c4c(C)noc4C)ccc3n2[C@H]2C[C@H](O)C2)cc1Cl
- IC50 [3]: 155 nM

SMILES: Cc1noc(C)c1-c1ccc2c(c1)nc(C1CC1c1ccccc1)n2[C@H]1CC[C@H](O)CC1 (stereo partly drawn)
- IC50 [3]: 263 nM

SMILES: COc1ccc(CCc2nc3cc(-c4cnn(C)c4)ccc3n2C[C@H](C)N2CCOCC2)cc1Cl
- ΔTm [1]: 2.95 °C

SMILES: COc1ccc(CCc2nc3cc(CC#N)ccc3n2C[C@H](C)N2CCOCC2)cc1Cl
- ΔTm [1]: 1.44 °C

SMILES: COc1ccc(CCc2nc3cc(-c4c(C)noc4C)ccc3n2C2CCN(S(C)(=O)=O)CC2)cc1Cl
- IC50 [3]: 148 nM

SMILES: COc1ccc(CCc2nc3cc(C4(C)COC4)ccc3n2C[C@H](C)N2CCOCC2)cc1Cl
- ΔTm [1]: 2.21 °C

SMILES: COc1ccc(CCc2nc3cc(-c4c(C)noc4C)ccc3n2[C@H]2CC[C@H](O)CC2)cc1Cl
- Activity [8]: Active
- IC50 [2]: 2820 nM
- IC50 [3]: 48 nM
- IC50 [4]: 1390 nM
- Activity [10]: 28.49%
- IC50 [6]: 3680 nM
- IC50 [7]: 6830 nM
- Activity [12]: 90%

SMILES: COc1ccc(CCc2nc3cc(-c4c(C)noc4C)ccc3n2C2CCN(C(C)=O)CC2)cc1Cl
- IC50 [3]: 94 nM

SMILES: COc1ccc(CCc2nc3cc(-c4c(C)noc4C)ccc3n2C2CCC(F)(F)CC2)cc1Cl
- IC50 [3]: 83 nM

SMILES: COc1ccc(CCc2nc3cc(-c4c(C)noc4C)ccc3n2[C@H]2CC[C@H](C(F)(F)F)CC2)cc1Cl
- IC50 [3]: 894 nM

SMILES: COc1ccc(CCc2nc3cc(-c4c(C)noc4C)ccc3n2C2CC(C)(C)OC(C)(C)C2)cc1Cl
- IC50 [3]: 112 nM

SMILES: COc1ccc(CCc2nc3cc(NC(C)=O)ccc3n2C[C@H](C)N2CCOCC2)cc1Cl
- ΔTm [1]: 2.97 °C

SMILES: CNC(=O)Nc1ccc2c(c1)nc(CCc1ccc(OC)c(Cl)c1)n2C[C@H](C)N1CCOCC1
- ΔTm [1]: 3.53 °C

SMILES: COc1ccc(CCc2nc3cc(-c4c(C)noc4C)ccc3n2[C@H]2CC[C@H](OC)CC2)cc1Cl
- IC50 [2]: 5650 nM
- IC50 [3]: 97 nM
- IC50 [4]: 2290 nM
- Activity [5]: Dde
- IC50 [6]: 2550 nM
- IC50 [7]: > 10000 nM

SMILES: COc1ccc(CCc2nc3cc(S(C)(=O)=O)ccc3n2C[C@H](C)N2CCOCC2)cc1Cl
- ΔTm [1]: 1.07 °C
